Measured values: US20100056508A1, “AMINE DERIVATIVES AND THEIR USE IN BETA-2-ADRENORECEPTOR MEDIATED DISEASES” (ASTRAZENECA AB, priority 2006, published 2010)
Where a name gives a salt, the structure may show the parent alone.

Legend:
Adrenergic β2 = target: T1, Adrenergic β2 (Homo sapiens, UniProt P07550); experiment: Adrenergic β2 mediated cAMP production in H292 cells (AlphaScreen cAMP detection); assay type: cell-based; set-up: key to β2 Int Act: fraction of formoterol maximum activity (formoterol = 1); conditions: for β2 Int Act: Intrinsic Activity as a fraction relative to the maximum activity determined for formoterol; for EC50: cAMP production, 60 minutes at room temperature, 300 μM rolipram, read-out: β2 pEC50 (converted)
T1 construct: Adherent H292 cells were removed from tissue culture flasks; endogenous in cells; host or cells: H292 cells
Procedure, shortened: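 H292 cells pre-treated 10 min with rolipram (300 μM final), then given agonist for 60 min at room temperature in HBSS/10 mM HEPES pH 7.4, 1.6% DMSO final. Lysate cAMP measured by AlphaScreen against a cAMP standard curve. Four-parameter fit gives pEC50; intrinsic activity relative to formoterol maximum.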

[1] = target: T2, recombinant human adrenergic beta 1 receptors (Homo sapiens, UniProt P08588); experiment: Adrenergic β1 selectivity assay, [125I]-Iodocyanopindolol binding to membranes; conditions: inhibition of [125I]-Iodocyanopindolol binding, read-out: β1 bind pIC50 (converted)
T2 construct: purchased Euroscreen
Procedure, shortened: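 Displacement of [^125I]-Iodocyanopindolol (0.036 nM final) from human β1 receptor membranes, 2 hours at room temperature, pH 7.4 HEPES/EDTA/NaCl buffer. After filtration, scintillation counting; NSB set with 10 μM propranolol and subtracted. Four-parameter logistic fitting gave pIC50.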

[2] = target: T3, recombinant human Dopamine Subtype D2s receptors (Homo sapiens, UniProt P14416); experiment: Dopamine D2 selectivity assay, [3H]-spiperone binding to membranes; conditions: inhibition of [3H]-spiperone binding, read-out: D2 bind pIC50 (converted)
T3 construct: purchased Perkin Elmer
Procedure, shortened: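 Human D2s receptor membranes incubated 2 h at room temperature with 0.16 nM [3H]-spiperone and test compound in HEPES buffer pH 7.4 (120 mM NaCl, 0.1% gelatin). Non-specific binding defined with 10 μM haloperidol; filter-bound radioactivity counted, pIC50 from four-parameter logistic fit.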

T1 sequence (P07550 whole entry): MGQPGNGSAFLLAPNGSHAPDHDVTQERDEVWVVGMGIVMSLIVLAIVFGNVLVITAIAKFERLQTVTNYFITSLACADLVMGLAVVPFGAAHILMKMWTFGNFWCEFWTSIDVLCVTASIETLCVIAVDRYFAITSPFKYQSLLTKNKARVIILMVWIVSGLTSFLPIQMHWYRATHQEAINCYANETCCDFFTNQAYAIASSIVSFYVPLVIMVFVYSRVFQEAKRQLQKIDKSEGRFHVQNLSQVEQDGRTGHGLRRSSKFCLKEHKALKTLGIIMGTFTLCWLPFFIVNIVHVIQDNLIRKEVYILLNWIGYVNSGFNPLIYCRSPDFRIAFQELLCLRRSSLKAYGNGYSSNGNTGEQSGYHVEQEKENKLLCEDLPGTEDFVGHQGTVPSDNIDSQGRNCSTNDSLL
T2 sequence (P08588 whole entry): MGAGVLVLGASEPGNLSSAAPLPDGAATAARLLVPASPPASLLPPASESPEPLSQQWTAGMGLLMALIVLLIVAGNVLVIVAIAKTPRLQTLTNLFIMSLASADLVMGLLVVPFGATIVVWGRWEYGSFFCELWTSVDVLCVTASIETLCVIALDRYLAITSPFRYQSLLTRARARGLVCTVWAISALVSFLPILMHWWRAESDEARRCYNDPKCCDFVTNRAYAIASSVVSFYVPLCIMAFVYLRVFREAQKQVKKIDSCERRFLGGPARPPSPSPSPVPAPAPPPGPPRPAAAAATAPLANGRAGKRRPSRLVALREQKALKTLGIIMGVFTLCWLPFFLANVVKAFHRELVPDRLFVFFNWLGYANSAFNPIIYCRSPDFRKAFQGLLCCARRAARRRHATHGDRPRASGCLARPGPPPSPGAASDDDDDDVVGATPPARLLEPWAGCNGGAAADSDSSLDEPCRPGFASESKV
T3 sequence (P14416 1-414 isoform P14416-2): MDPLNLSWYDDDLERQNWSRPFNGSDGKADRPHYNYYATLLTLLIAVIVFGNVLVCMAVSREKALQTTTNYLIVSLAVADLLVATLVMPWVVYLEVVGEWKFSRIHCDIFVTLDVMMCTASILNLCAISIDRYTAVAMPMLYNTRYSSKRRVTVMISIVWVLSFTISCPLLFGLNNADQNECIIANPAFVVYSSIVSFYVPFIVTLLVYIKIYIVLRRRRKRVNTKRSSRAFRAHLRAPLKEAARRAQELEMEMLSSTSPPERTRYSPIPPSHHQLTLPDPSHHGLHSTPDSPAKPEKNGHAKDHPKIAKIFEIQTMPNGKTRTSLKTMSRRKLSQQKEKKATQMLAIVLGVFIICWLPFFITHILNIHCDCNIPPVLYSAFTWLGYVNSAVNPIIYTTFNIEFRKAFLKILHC

SMILES | β2 Int Act (Adrenergic β2) | EC50 (Adrenergic β2) [nM] | IC50 [1] [nM] | IC50 [2] [nM]
O=C1COc2c(CCNCCN(C(=O)CCNCCc3ccc(C(=O)O)cc3)C3CCCCC3)ccc(O)c2N1 [Example 43, 4-(2-(3-(Cyclohexyl(2-(2-(5-hydroxy-3-oxo-3,4-dihydro-2H-benzo[b][1,4]oxazin-8-yl)ethylamino)ethyl)amino)-3-oxopropylamino)ethyl)benzoic acid bis(trifluoroacetate)] | 0.97 | 31.6 | > 10000 | > 10000
CC(C)[C@@H](C)N(CCNCCc1ccc(O)c2[nH]c(=O)ccc12)C(=O)CCOCCc1ccccc1.Cl [Example 80, (R)—N-(2-(2-(8-Hydroxy-2-oxo-1,2-dihydroquinolin-5-yl)ethylamino)ethyl)-N-(3-methylbutan-2-yl)-3-phenethoxypropanamide hydrochloride] | 1.04 | 25.1 | > 10000 | 2510
O=C1COc2c(CCNCCN(C(=O)CCOCCc3cccc(F)c3)C3CCCCC3)ccc(O)c2N1 [Example 74, N-Cyclohexyl-3-(3-fluorophenethoxy)-N-(2-(2-(5-hydroxy-3-oxo-3,4-dihydro-2H-benzo[b][1,4]oxazin-8-yl)ethylamino)ethyl)propanamide trifluoroacetate] | 0.97 | 2 | 2510 | 2000
O=C(CCNCCc1cccc(F)c1F)N(CCNCCc1ccc(O)c2[nH]c(=O)ccc12)C1CCCCC1 [Example 18, N-Cyclohexyl-3-(3-difluorophenethylamino)-N-(2-(2-(8-hydroxy-2-oxo-1,2-dihydroquinolin-5-yl)ethylamino)ethyl)propanamide bis(trifluoroacetate)] | 0.95 | 12.6 | > 10000 | 3160
O=C1COc2c(CCNCCN(C(=O)CCNCCc3cc(F)cc(F)c3)C3CCCCCC3)ccc(O)c2N1 [Example 65, N-Cycloheptyl-3-(3,5-difluorophenethylamino)-N-(2-(2-(5-hydroxy-3-oxo-3,4-dihydro-2H-benzo[b][1,4]oxazin-8-yl)ethylamino)ethyl)propanamide bis(trifluoroacetate)] | 0.93 | 1.58 | 2510 | 126
O=C1COc2c(CCNCCN(C(=O)CCNCCc3ccc(F)c(F)c3)C3CCCCCC3)ccc(O)c2N1 [Example 67, N-Cycloheptyl-3-(3,4-difluorophenethylamino)-N-(2-(2-(5-hydroxy-3-oxo-3,4-dihydro-2H-benzo[b][1,4]oxazin-8-yl)ethylamino)ethyl)propanamide bis(trifluoroacetate)] | 0.87 | 3.16 | 1000 | 100
O=C(CCOCCc1ccccc1)N(CCNCCc1ccc(O)c2[nH]c(=O)ccc12)C1CCCCC1 [Example 2, N-Cyclohexyl-N-(2-(2-(8-hydroxy-2-oxo-1,2-dihydroquinolin-5-yl)ethylamino)ethyl)-3-phenethoxypropanamide] | 0.93 | 12.6 | > 6310 | > 6310
O=C1COc2c(CCNCCN(C(=O)CCOCCc3cccc(Cl)c3)C3CCCCC3)ccc(O)c2N1 [Example 77, 3-(3-Chlorophenethoxy)-N-cyclohexyl-N-(2-(2-(5-hydroxy-3-oxo-3,4-dihydro-2H-benzo[b][1,4]oxazin-8-yl)ethylamino)ethyl)propanamide trifluoroacetate] | 0.97 | 2 | 3160 | 2000
O=C1COc2c(CCNCCN(C(=O)CCNCCc3ccc(Cl)c(Cl)c3)C3CCCCC3)ccc(O)c2N1 [Example 30, N-Cyclohexyl-3-(3,4-dichlorophenethylamino)-N-(2-(2-(5-hydroxy-3-oxo-3,4-dihydro-2H-benzo[b][1,4]oxazin-8-yl)ethylamino)ethyl)propanamide bis(trifluoroacetate)] | 0.92 | 3.98 | 2510 | 50.1
O=C(CCNCCc1ccccc1)N(CCNCCc1ccc(O)c(O)c1)C1CCCCC1 [Example 22, N-Cyclohexyl-N-(2-(3,4-dihydroxyphenethylamino)ethyl)-3-(phenethylamino)propanamide bis(trifluoroacetate)] | 1.01 | 20 | 2510 | 501

Next, values leading:

β2 Int Act (Adrenergic β2) | EC50 (Adrenergic β2) [nM] | IC50 [1] [nM] | IC50 [2] [nM] | SMILES
0.94 | 1.58 | 2000 | 39.8 | CCCC[C@@H](C)N(CCNCCc1ccc(O)c2c1OCC(=O)N2)C(=O)CCNCCc1cc(F)cc(F)c1 [Example 51, (R)-3-(3,5-Difluorophenethylamino)-N-(hexan-2-yl)-N-(2-(2-(5-hydroxy-3-oxo-3,4-dihydro-2H-benzo[b][1,4]oxazin-8-yl)ethylamino)ethyl)propanamide bis(trifluoroacetate)]
0.79 | 2 | 251 | 39.8 | O=C1COc2c(CCNCCN(C(=O)CCNCCc3ccc(Cl)cc3)C3CCCCCC3)ccc(O)c2N1 [Example 63, 3-(4-Chlorophenethylamino)-N-cycloheptyl-N-(2-(2-(5-hydroxy-3-oxo-3,4-dihydro-2H-benzo[b][1,4]oxazin-8-yl)ethylamino)ethyl)propanamide bis(trifluoroacetate)]
0.87 | 3.98 | 2000 | 100 | CC(C)[C@@H](C)N(CCNCCc1ccc(O)c2c1OCC(=O)N2)C(=O)CCNCCc1ccc(Cl)c(Cl)c1 [Example 59, (R)-3-(3,4-Dichlorophenethylamino)-N-(2-(2-(5-hydroxy-3-oxo-3,4-dihydro-2H-benzo[b][1,4]oxazin-8-yl)ethylamino)ethyl)-N-(3-methylbutan-2-yl)propanamide dihydrochloride]
0.89 | 1.26 | 1260 | 31.6 | CCCC[C@@H](C)N(CCNCCc1ccc(O)c2c1OCC(=O)N2)C(=O)CCNCCc1cc(F)cc(Cl)c1 [Example 50, (R)-3-(3-Chloro-5-fluorophenethylamino)-N-(hexan-2-yl)-N-(2-(2-(5-hydroxy-3-oxo-3,4-dihydro-2H-benzo[b][1,4]oxazin-8-yl)ethylamino)ethyl)propanamide bis(trifluoroacetate)]
0.91 | 5.01 | 3160 | 100 | O=C1COc2c(CCNCCN(C(=O)CCNCCc3cccc(Cl)c3Cl)C3CCCCC3)ccc(O)c2N1 [Example 29, N-Cyclohexyl-3-(2,3-dichlorophenethylamino)-N-(2-(2-(5-hydroxy-3-oxo-3,4-dihydro-2H-benzo[b][1,4]oxazin-8-yl)ethylamino)ethyl)propanamide bis(trifluoroacetate)]
0.93 | 3.98 | 398 | 100 | O=C1COc2c(CCNCCN(C(=O)CCNCCc3cccc(Cl)c3)C3CCCCCC3)ccc(O)c2N1 [Example 68, 3-(3-Chlorophenethylamino)-N-cycloheptyl-N-(2-(2-(5-hydroxy-3-oxo-3,4-dihydro-2H-benzo[b][1,4]oxazin-8-yl)ethylamino)ethyl)propanamide bis(trifluoroacetate)]
0.91 | 2 | 794 | 79.4 | CCCC[C@@H](C)N(CCNCCc1ccc(O)c2c1OCC(=O)N2)C(=O)CCNCCc1ccc(F)c(Cl)c1 [Example 48, (R)-3-(3-Chloro-4-fluorophenethylamino)-N-(hexan-2-yl)-N-(2-(2-(5-hydroxy-3-oxo-3,4-dihydro-2H-benzo[b][1,4]oxazin-8-yl)ethylamino)ethyl)propanamide bis(trifluoroacetate)]
0.89 | 1.26 | 1580 | 15.8 | CCCC[C@@H](C)N(CCNCCc1ccc(O)c2c1OCC(=O)N2)C(=O)CCNCCc1ccccc1Cl [Example 46, (R)-3-(2-Chlorophenethylamino)-N-(hexan-2-yl)-N-(2-(2-(5-hydroxy-3-oxo-3,4-dihydro-2H-benzo[b][1,4]oxazin-8-yl)ethylamino)ethyl)propanamide bis(trifluoroacetate)]
0.96 | 5.01 | 2000 | 31.6 | CCCC[C@@H](C)N(CCNCCc1ccc(O)c2c1OCC(=O)N2)C(=O)CCNCCc1cc(F)ccc1F [Example 54, (R)-3-(2,5-Difluorophenethylamino)-N-(hexan-2-yl)-N-(2-(2-(5-hydroxy-3-oxo-3,4-dihydro-2H-benzo[b][1,4]oxazin-8-yl)ethylamino)ethyl)propanamide bis(trifluoroacetate)]
0.91 | 1.26 | 3160 | 631 | O=C1COc2c(CCNCCN(C(=O)CCNCCc3cccc(F)c3F)C3CCCCC3)ccc(O)c2N1 [Example 36, N-Cyclohexyl-3-(2,3-difluorophenethylamino)-N-(2-(2-(5-hydroxy-3-oxo-3,4-dihydro-2H-benzo[b][1,4]oxazin-8-yl)ethylamino)ethyl)propanamide bis(trifluoroacetate)]
